Laboratory results from a melting point compilation (Tetko et al.; mined from patent text by program, amines drawn as free bases though some values may be those of a salt).

With `O=C(O)CC(=O)Nc1ccc2c(=O)[nH]c(=O)n(CCCCN3CCC(OC(c4ccccc4)c4ccccc4)CC3)c2c1` the melting point was 230 to 232 °C.
For `CN1C(=O)[C@H](NC(=O)CCc2cccc(C#N)c2)N=C(c2ccccc2)c2ccccc21`, the melting point was 110 to 112 °C.
`Cc1[nH]c(=O)ccc1-c1ccc(-n2ccnc2)cc1` showed a melting point of 310 to 314 °C.
For `O=[N+]([O-])c1ccc(Oc2cncc(Cl)n2)cc1`, the melting point was 125 to 127 °C.
Work on `COc1ccc(S(C)(=O)=O)cc1N` yielded a melting point of 174 to 178 °C.
With `COc1ccc(Nc2cc(-c3ccccc3)nc3ccccc23)cc1Cl` the melting point was 272 to 274 °C.
In the case of `CC(C)c1nc(CO)c(CO)[nH]1`, the melting point is reported as 200 to 201 °C.
Compound `CCc1cc(O)n2nc(CC)c(C)c2n1` has a melting point of 287 °C.
Compound `Cn1nnnc1-c1cn(C)c2cc(C(F)(F)F)ccc2c1=O` has a melting point of 220 to 221 °C.
Compound `O=C(O)COc1cc2c(c(Cl)c1Cl)C(O)C1(CCCC1)C2` (centres undefined) has a melting point of 135 °C.
`COc1ccc(-c2ccc3c(=O)[nH]c(=O)[nH]c3n2)cc1COC(=O)C(C)(C)C` gave a melting point of 260 to 266 °C.
`CCCCCCn1cnc(NC)c1C(=O)NCCCCCCOc1ccc(Cl)cc1` showed a melting point of 55 to 56 °C.
Compound `CCCC1=C(C(=O)OCC)C(c2ccncc2)c2c[nH]nc2N1` (centres undefined) has a melting point of 266 °C.
Work on `O=S(=O)(c1ccccc1)c1ccc(Oc2ccc(Cl)c(Cl)c2)nc1` yielded a melting point of 113 to 114 °C.
For `CONS(=O)(=O)c1ccc(C(=O)C=Cc2cc(-c3cc4ccccc4n3C)c(OC)cc2OC)cc1`, the melting point was 214 to 216 °C.
For `CCOC(=O)/C=C/c1cc(OC)c(O)c2c(CC)cccc12`, the melting point was 75 to 76 °C.
For `COc1ccc(S(=O)(=O)NCCCO)c(OC)c1OC`, the melting point was 95 to 97 °C.
`CC(=O)N[C@@H](C)COC1CCN(c2nc3cc(OCC4CCC4)ccc3o2)CC1` gave a melting point of 109 to 110 °C.
In the case of `CC(C)(C(=O)O)n1c(=O)[nH]c2ccc(F)cc2c1=O`, the melting point is reported as 249 to 253 °C.
Compound `O=C(Nc1c(C(O)(C(F)(F)F)C(F)(F)F)ccc2ccccc12)c1ccco1` has a melting point of 228 to 229 °C.
With `Clc1cccc(C2=CCN(Cc3ccccc3)CC2)n1` the melting point was 100 to 102 °C.
`COc1cc2c3c(nc4ccc(Cl)cc4c3c1)-c1ccc(Cl)cc1N2C` showed a melting point of 287 to 289 °C.
For `CN(C)C1CCN(c2nc3c(cc2F)c(=O)c(C(=O)O)cn3CCF)C1` (centres undefined), the melting point was 247 to 249 °C.
In the case of `O=C(Nc1ccc(F)c(CO)c1)c1ccccn1`, the melting point is reported as 99 to 122 °C.
In the case of `OC(COc1ccccc1-c1cc[nH]n1)CN1CCN(c2ccc(Cl)cc2)CC1` (centres undefined), the melting point is reported as 120 to 121 °C.
With `Oc1cnc(-c2ccccc2)c(F)c1` the melting point was 150 to 151 °C.
Work on `OC1CSC(Sc2ccccc2)C(O)C1O` (centres undefined) yielded a melting point of 150 to 151 °C.
`O=C1N(CC2CCCO2)c2ccccc2C12COc1cc3c(cc12)OCCO3` (centres undefined) gave a melting point of 174 to 176 °C.
Work on `COc1ccc2oc(CC(=O)O)c(C)c2c1` yielded a melting point of 113 to 114 °C.
In the case of `C=C=CC(C)(O)c1ccc(Br)cc1` (centres undefined), the melting point is reported as 45 to 50 °C.
With `C#Cc1ccc(C2=C(C#N)C(=C(C#N)C#N)OC2(C)C)cc1` the melting point was 225 °C.
In the case of `CC12C=CC(=O)C=C1CCC1C2CCC2(C)C(=O)COC12` (centres undefined), the melting point is reported as 181 to 185 °C.
In the case of `O=C(Nc1ccc(Cl)nc1)c1cccc(Cl)c1`, the melting point is reported as 227 to 229 °C.
Compound `O=C(O)c1ccc(-c2nn(Cc3cccc(Cl)c3)c(=S)[nH]2)cc1` has a melting point of 302 °C.
For `N#CC=Cc1ccc2c(c1)-c1c3c(c4c([nH]c5ccccc54)c1C2)C(=O)NC3`, the melting point was greater than 330 °C.
`COc1ccc(C2(c3nc(N)nc(N)n3)CCCCC2)cc1` showed a melting point of 159 to 163 °C.
With `CC(C)C[C@H](NC(=O)[C@H](Cc1ccccc1)NC(=O)CCC(=O)O)C(=O)O` the melting point was 156 to 158 °C.
`O=C(O)CCN(C1(C(=O)NO)CCCC1)S(=O)(=O)c1ccc(-c2ccc(F)cc2)cc1` showed a melting point of 163 to 164 °C.
`CCCc1ncc(C(=O)OCC)c(NCc2ccc(-c3ccccc3-c3nnnn3C(c3ccccc3)(c3ccccc3)c3ccccc3)cc2)n1` showed a melting point of 132 to 133 °C.
For `NC(=O)N1C(=O)C(=C(OC(=O)c2cccc(C(=O)O)c2)c2cccs2)c2cc(F)c(Cl)cc21`, the melting point was 244 to 248 °C.
`N#CC(OC1CCCCO1)c1ccc(Cl)c(Cl)c1` (centres undefined) showed a melting point of 61 °C.
`O=C1C=CC(=O)C2=C1OCCO2` gave a melting point of 156 °C.
`COC(=O)CCCC(=O)c1ccc(O)c(O)c1` gave a melting point of 104 to 106 °C.
Compound `Cc1ccc(C(Cl)=NNc2ccccc2)cc1` has a melting point of 133 to 134 °C.
With `O=C(Nc1cccc(-c2nnn[nH]2)c1)Oc1ccc([N+](=O)[O-])cc1` the melting point was 186 to 188 °C.
For `Cc1c(CN(C)C)cc(C(C)(C)C)c(O)c1C`, the melting point was 101 to 104 °C.
With `COc1cc(Oc2ccc(S(C)(=O)=O)cc2)cc2cc(C3=NCC(CC(=O)O)S3)[nH]c12` (centres undefined) the melting point was 144 to 145 °C.
With `CC(CN(C)C)CC(CNC(=O)N(CCCl)N=O)(c1ccccc1)c1ccccc1` (centres undefined) the melting point was 105 to 107 °C.
In the case of `CCC(OC(=O)C1CC1)c1ccc(Cl)c2nc3n(c12)CCCN3c1ccc(Cl)cc1Cl` (centres undefined), the melting point is reported as 159 to 161 °C.
`CCn1c(-c2ccc(OC)c(OC)c2)cc(=S)n(C)c1=O` showed a melting point of 147 to 150 °C.
In the case of `CCOC(=O)Cc1sc(C(C)(C)c2c(Cl)cc(-n3ncc(=O)[nH]c3=O)cc2Cl)nc1-c1ccccc1`, the melting point is reported as 148 °C.
Work on `CCCn1c(=O)c2[nH]c(/C=C/c3ccc(OC)c(C)c3C)nc2n(CCC)c1=O` yielded a melting point of 271 °C.
In the case of `COc1ccc(C[C@@H](C(=O)O)[C@@H](O)c2ccc(F)cc2)cc1` (racemic), the melting point is reported as 96 to 98 °C.
In the case of `COc1cc(OC)nc(Oc2cccc(O)c2C=O)n1`, the melting point is reported as 82 °C.
For `Cc1ccc(-c2nc(Oc3ccccc3)nc(-c3ccc(C)cc3C)n2)c(C)c1`, the melting point was 96 to 98 °C.
In the case of `O=C(Nc1ccc(N2CCCC2)nc1)c1cc2cc(C(F)(F)F)cnc2n1Cc1cccc(F)c1`, the melting point is reported as 234 to 236 °C.
With `CCCCCNC(CCCCC)=C1C(=O)ON=C1C` the melting point was 36 °C.
Work on `COc1ccc2c3c(c(=O)oc2c1)CN(Cc1ccnc2ccccc12)CC3` yielded a melting point of 186 to 188 °C.
With `CC1(C)N[C@H](Cc2ccc(Br)cc2)[C@@H]2C(=O)N(Cc3ccccc3)C(=O)[C@@H]21` (racemic) the melting point was 142 to 143 °C.
`COC(=O)c1cn(S(=O)(=O)c2ccc(C)cc2)c(C)c1C` showed a melting point of 108 to 114 °C.
Compound `COCn1ccnc1C(O)(c1ccc(F)cc1)c1ccc(F)cc1` has a melting point of 133 °C.
In the case of `CCc1cccc(CC)c1NC(=O)NC1(c2ccccc2)CCCC1`, the melting point is reported as 215 to 218 °C.
In the case of `O=c1[nH]c(=O)n(Cc2ccccc2)cc1C=NO`, the melting point is reported as 172 to 174 °C.
For `COc1ccc(CC(C)(N)C(=O)O)cc1` (centres undefined), the melting point was 243 to 244 °C.
`NC(=O)CCNC(=O)C1CCCN1C(=O)OCc1ccccc1` (centres undefined) showed a melting point of 151 to 152 °C.
For `CN(C)C(=O)n1nc(NC=O)c2cc(C(F)(F)F)ccc21`, the melting point was 198 to 200 °C.
Work on `COc1cc(OC)cc(-c2nc(-c3ccccn3)no2)c1` yielded a melting point of 145 to 148 °C.
Compound `O=C(O)Cc1cn2ccccc2n1` has a melting point of 205 to 208 °C.
Compound `NC1=NN(c2cccc(Cl)n2)C(c2ccccc2)C1` (centres undefined) has a melting point of 188 °C.
For `CS(=O)(=O)N[C@H]1CC[C@H](CCN2CCN(c3nccc4c3CCO4)CC2)CC1`, the melting point was 220 °C.
`CC(C)S(=O)(=O)c1ccc2c(c1)nc(CC(C)(C)C)n2CCN1CCOCC1` showed a melting point of 151 °C.
`c1ccc2c(c1)NCCc1nncn1-2` showed a melting point of 162 to 165 °C.
With `Cc1ccccc1-c1c(Cl)nc2ccccc2c1Cl` the melting point was 78 to 80 °C.
`CC(C)(C)[Si](C)(C)Oc1cccc(C2(Br)C(=O)NC(=O)NC2=O)c1` gave a melting point of 170 to 172 °C.
Compound `COC(=O)c1ccc(CN2CCN(S(=O)(=O)c3ccccc3)CC2)cc1` has a melting point of 145 to 146 °C.
`CON1C(=O)[C@@H](NC(=O)OC(C)(C)C)[C@@H]1C1CCCCC1` (relative stereo) gave a melting point of 110 to 112 °C.
With `Cc1cc(NC(=O)C(CS)Cc2ccccc2)c(C)c(C(=O)O)c1` (centres undefined) the melting point was 180 to 182 °C.
Work on `O=C1OC(=O)c2cc3c(ccc4ccccc43)cc21` yielded a melting point of 278 °C.
Compound `CC(C)c1ccccc1NN` has a melting point of 206 to 210 °C.
Compound `CSc1cc(C)nc(SC)c1NC(=O)CCN1CCN(CCSc2nc3ccccc3o2)CC1` has a melting point of 110 to 112 °C.
`O=C(c1ccc(F)c(F)c1)N1CCC[C@H](c2nc(-c3cscn3)no2)C1` showed a melting point of 107 to 109 °C.
In the case of `NC(=O)c1ccc(N2CCOCC2)cc1`, the melting point is reported as 220 to 221 °C.
Compound `COc1cc(/C(C#N)=C\c2ccc(Cl)c(N)c2)cc(OC)c1OC` has a melting point of 150 to 151 °C.
Compound `O=c1oc(-c2cccc(Cl)c2)cc(O)c1SCCc1ccccc1` has a melting point of 125 to 127 °C.
Compound `N#Cc1nn(-c2c(Cl)cc(C(F)(F)F)cc2Cl)c(Cl)c1I` has a melting point of 116 °C.
`C=CCC(CC)(C(=O)c1ccc(OCCO)cc1)N(C)C` (centres undefined) gave a melting point of 80 to 82 °C.
In the case of `Cc1oc(-c2cccc(CCc3ccccc3)c2)nc1CCOc1ccc(OC(C)(C)C(=O)O)cc1`, the melting point is reported as 124 to 125 °C.
Work on `OC(CNC1CCc2ccccc2C1)COc1cccc2c1CCCC2` (centres undefined) yielded a melting point of 90 to 93 °C.
For `NC1CCN(c2c(F)cc3c(=O)c(C(=O)O)cn(C4CC4)c3c2Cl)C1` (centres undefined), the melting point was 241 to 242 °C.
For `O=C(NC1CCC(CCN2CCC(c3cccc4c3CCO4)CC2)CC1)C(O)C(F)(F)F` (racemic), the melting point was 179 °C.
For `CCN(CC)CCCNC(=O)Cn1cc(-c2ccccc2)cn1`, the melting point was 55 to 57 °C.
`CCOC(=O)c1sc(Oc2ccc(F)cc2)c2c1CCc1cnn(C)c1-2` gave a melting point of 94 to 95 °C.
In the case of `C=CS(=O)CCNC(=O)CCS(=O)(=O)CCCl` (centres undefined), the melting point is reported as 108 to 109 °C.
For `COc1ccc2cc(-c3cnc(Cc4ccc5ccccc5c4)o3)ccc2c1`, the melting point was 159 to 162 °C.
Work on `CN(C)C(=O)Nc1snc(S(C)(=O)=O)c1C#N` yielded a melting point of 243 to 244 °C.
`CCNC(=O)N1Cc2c(-c3ccc(F)cc3)ncn2-c2ccccc21` gave a melting point of 196 to 200 °C.
Work on `COC(=O)/C=C/c1occc(=O)c1OCC(=O)OC(C)(C)C` yielded a melting point of 115 to 116 °C.
In the case of `CC(=O)OCC(OC(C)=O)C1OC(OC(C)=O)(C(=O)O)CC(OC(C)=O)C1OC(C)=O` (centres undefined), the melting point is reported as 132 to 133 °C.
`Nc1cc(-c2ccoc2)ccc1Nc1cccc(-n2ccnc2)c1` gave a melting point of 188 to 189 °C.
With `CCOC(=O)C1(C(=O)Nc2cc(Cl)c(Cl)cc2C)CC1` the melting point was 105 to 107 °C.
With `CCC(C)(OCc1nn(Cc2ccccc2)c2ccccc12)C(=O)O` (centres undefined) the melting point was 66 to 67 °C.
Compound `Cc1nc(C)nc(NC(=O)NS(=O)(=O)c2ccccc2Cl)n1` has a melting point of 115 to 118 °C.
`O=C1CCCc2c1c1cc(Cl)ccc1n2Cc1ccc(F)cc1` gave a melting point of 207 to 208 °C.
Work on `CN1Cc2c(C(=O)OC(C)(C)C)ncn2-c2ccncc2C1=O` yielded a melting point of 214 to 215 °C.
